IC50 data for 22 molecules are collected here from patent EP0938471B1, “THE PREPARATION AND USE OF ORTHO-SULFONAMIDO ARYL HYDROXAMIC ACIDS AS MATRIX METALLOPROTEINASE AND TACE INHIBITORS” (priority 1996, dated 1998).

Common to all, as to type: biochemical
The target of one experiment is T1, MMP-1 (Homo sapiens, UniProt P03956).
T1 sequence (P03956 100-469): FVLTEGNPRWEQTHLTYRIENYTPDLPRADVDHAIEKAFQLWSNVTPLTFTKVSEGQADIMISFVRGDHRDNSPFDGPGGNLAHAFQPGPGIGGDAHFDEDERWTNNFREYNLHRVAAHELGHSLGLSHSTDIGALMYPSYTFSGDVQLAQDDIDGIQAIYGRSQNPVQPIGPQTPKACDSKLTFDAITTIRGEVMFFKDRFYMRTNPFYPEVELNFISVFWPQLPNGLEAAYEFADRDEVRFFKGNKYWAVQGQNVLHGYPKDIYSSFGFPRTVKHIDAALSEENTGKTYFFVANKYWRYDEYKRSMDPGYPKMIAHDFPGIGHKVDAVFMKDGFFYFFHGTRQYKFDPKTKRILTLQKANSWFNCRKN
The experiment can be described thus: MMP-1 inhibition (thiopeptide or fluorescent peptide substrate assay). The conditions noted are these: read-out: MMP-1 IC50.

The target of a further experiment is MMP-9 (Homo sapiens, UniProt P14780). As to the kind of experiment: MMP-9 inhibition (thiopeptide or fluorescent peptide substrate assay).
For a further experiment, the target named is TACE (Homo sapiens, UniProt P78536). The experiment can be described thus: TACE inhibition (fluorescent peptidyl substrate).
In a further experiment the target is MMP-13 (Homo sapiens, UniProt P45452). As to the kind of experiment: MMP-13 inhibition (thiopeptide or fluorescent peptide substrate assay).

Counter-ions that a name gives are not always drawn. Like-named read-outs stand apart in the source and are kept apart here.

MMP-9, sequence (P14780 94-707): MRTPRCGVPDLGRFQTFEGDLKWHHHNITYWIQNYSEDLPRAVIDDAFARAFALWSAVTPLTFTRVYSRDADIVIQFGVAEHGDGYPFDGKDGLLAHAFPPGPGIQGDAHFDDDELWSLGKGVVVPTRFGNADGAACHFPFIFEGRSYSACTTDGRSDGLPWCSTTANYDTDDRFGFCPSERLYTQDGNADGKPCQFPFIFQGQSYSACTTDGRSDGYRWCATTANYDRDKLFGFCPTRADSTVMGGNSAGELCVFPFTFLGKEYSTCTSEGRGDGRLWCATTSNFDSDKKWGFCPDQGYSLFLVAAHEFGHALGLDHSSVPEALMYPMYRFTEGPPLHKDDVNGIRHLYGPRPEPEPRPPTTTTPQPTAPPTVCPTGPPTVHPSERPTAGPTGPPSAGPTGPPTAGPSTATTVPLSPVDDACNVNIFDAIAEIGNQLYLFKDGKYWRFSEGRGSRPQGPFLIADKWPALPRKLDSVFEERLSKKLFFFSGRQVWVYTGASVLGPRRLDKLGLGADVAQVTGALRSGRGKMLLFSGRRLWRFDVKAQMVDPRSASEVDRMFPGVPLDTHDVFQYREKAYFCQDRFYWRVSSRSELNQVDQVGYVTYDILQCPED
TACE, sequence (P78536 215-824): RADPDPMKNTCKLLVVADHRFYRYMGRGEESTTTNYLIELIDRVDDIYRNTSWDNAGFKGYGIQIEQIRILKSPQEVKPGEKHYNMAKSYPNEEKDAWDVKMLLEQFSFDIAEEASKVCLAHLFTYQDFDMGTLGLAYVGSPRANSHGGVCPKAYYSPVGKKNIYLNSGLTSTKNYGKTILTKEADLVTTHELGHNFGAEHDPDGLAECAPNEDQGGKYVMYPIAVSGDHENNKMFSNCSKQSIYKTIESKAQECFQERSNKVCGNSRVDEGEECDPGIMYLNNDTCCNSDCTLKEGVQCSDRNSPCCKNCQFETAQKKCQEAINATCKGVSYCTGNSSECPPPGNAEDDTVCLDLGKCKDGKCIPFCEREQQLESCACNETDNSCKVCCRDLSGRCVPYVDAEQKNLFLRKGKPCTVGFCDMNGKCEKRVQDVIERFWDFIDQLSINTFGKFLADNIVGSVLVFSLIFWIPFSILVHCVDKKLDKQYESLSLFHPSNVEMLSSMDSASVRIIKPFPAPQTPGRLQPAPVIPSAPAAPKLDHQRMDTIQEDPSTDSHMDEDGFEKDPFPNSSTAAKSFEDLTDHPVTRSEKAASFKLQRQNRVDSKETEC
Procedure for TACE: Using 96-well black microtiter plates, each well receives a solution composed of 10 µL TACE (Immunex, final concentration 1µg/mL), 70µL Tris buffer, pH 7.4 containing 10% glycerol (final concentration 10 mM), and 10 µL of test compound solution in DMSO (final concentration 1µM, DMSO concentration <1%) and incubated for 10 minutes at room temperature.
The reaction is read (excitation 340 nm, emission 420 nm) for 10 min. and the increase in fluorescence over time is plotted as a linear line. The slope of the line is calculated and represents the reaction rate.
The linearity of the reaction rate is confirmed (r^2 >0.85). The mean (x±sem) of the control rate is calculated and compared for statistical significance (p<0.05) with drug-treated rates using Dunnett's multiple comparison test.

Broadly, the IC50 is the concentration needed to halve the response being measured. On to “3-Methyl-2-[4-(pyridin-4-yloxy)-benzensulfonylamino]-N-hydroxy-benzamide [Example 417]”, for which the IC50 worked out at 3240 nM on MMP-1 and 6.8 nM on MMP-9 (read-out: MMP-9 IC50).
Take `COc1ccc(S(=O)(=O)N(Cc2ccccc2)c2ccccc2C(=O)NO)cc1` [Example 23, 2-[Benzyl-(4-methoxy-benzenesulfonyl)-amino]-N-hydroxy-benzamide]: the IC50 was 639 nM at MMP-1, > 1000 nM at TACE (read-out: TACE IC50) and 650 nM at MMP-9.
For the molecule `COc1ccc(S(=O)(=O)N(Cc2ccccc2)c2c(Cl)cccc2C(=O)NO)cc1` [Example 24, 2-[Benzyl-(4-methoxy-benzenesulfonyl)-amino]-3-chloro-N-hydroxy-benzamide], the IC50 at MMP-1 stood at 398 nM; at MMP-9 (read-out: MMP-9 IC50) it was 31 nM.
With `COc1ccc(S(=O)(=O)N(Cc2ccccc2)c2c(C)cccc2C(=O)NO)cc1` [Example 28, 2-[Benzyl-(4-methoxy-benzenesulfonyl)-amino]-N-hydroxy-3-methyl-benzamide], the IC50 on TACE (read-out: TACE IC50) is 460 nM; on MMP-13 it was 50 nM.
In the case of `COc1ccc(S(=O)(=O)N(Cc2ccccc2)c2c(OCC(=O)NO)cccc2C(=O)NO)cc1` [Example 54, 2-[Benzyl-(4-methoxy-benzenesulfonyl)-amino]-N-hydroxy-3-hydroxycarbamoylmethoxy-benzamide], the half-maximal inhibitory concentration (IC50) on MMP-1 is 24 nM; against MMP-13, 4 nM; on MMP-9 (read-out: MMP-9 IC50), 3 nM.
With `CCCCC#Cc1cc(C)c(N(Cc2ccccc2)S(=O)(=O)c2ccc(OC)cc2)c(C(=O)NO)c1` [Example 77, 2-[Benzyl-(4-methoxy-benzenesulfonyl)-amino]-5-hex-1-ynyl-N-hydroxy-3-methyl-benzamide], on MMP-9 (read-out: MMP-9 IC50), the IC50 worked out at 131 nM.
Regarding `COc1ccc(S(=O)(=O)N(Cc2cccnc2)c2ccccc2C(=O)NO)cc1` [Example 85, N-Hydroxy-2-[(4-methoxy-benzenesulfonyl)-pyridin-3-ylmethyl-amino]-benzamide], the IC50 on TACE (read-out: TACE IC50) was > 1000 nM; on MMP-9 (read-out: MMP-9 IC50), 663 nM.
For `COc1ccc(S(=O)(=O)N(Cc2ccccc2)c2c(OC)cccc2C(=O)NO)cc1` [Example 101, 2-[Benzyl-(4-methoxy-benzenesulfonyl)-amino]-N-hydroxy-3-methoxy-benzamide], the IC50 at MMP-1 came out at 267 nM; on TACE (read-out: TACE IC50), 422 nM; against MMP-9, 23 nM.
Regarding `COc1ccc(S(=O)(=O)N(Cc2ccccc2)c2c(C(=O)NO)ccc(Cl)c2C)cc1` [Example 102, 2-[Benzyl-(4-methoxy-benzenesulfonyl)-amino]-4-chloro-N-hydroxy-3-methyl-benzamide], the IC50 came to 314 nM on MMP-1, 162 nM at TACE (read-out: TACE IC50) and 29 nM at MMP-9 (read-out: MMP-9 IC50).
On to `COc1ccc(S(=O)(=O)N(Cc2ccccc2)c2c(C(=O)NO)cc(OC)c(OC)c2OC)cc1` [Example 156, 2-[Benzyl-(4-methoxy-benzenesulfonyl)-amino]-N-hydroxy-3,4,5-trimethoxy-benzamide], for which the values for the IC50 at MMP-1, on MMP-13 (read-out: MMP-13 IC50) and on MMP-9 (read-out: MMP-9 IC50) were > 1000 nM, 134 nM and 104 nM, respectively.
As to `COc1ccc(S(=O)(=O)N(Cc2cccnc2)c2c(C(=O)NO)cc(OC)c(OC)c2OC)cc1` [Example 158, N-Hydroxy-3,4,5-trimethoxy-2-[(4-methoxy-benzenesulfonyl)-pyridin-3-ylmethyl-amino]-benzamide], the values for the IC50 on MMP-1, on MMP-13 (read-out: MMP-13 IC50) and at MMP-9 (read-out: MMP-9 IC50) were > 1000 nM, 62 nM and 11 nM, respectively.
Take `COc1ccc(S(=O)(=O)N2CCCOc3cccc(C(=O)NO)c32)cc1` [Example 165, 5-(4-Methoxy-benzenesulfonyl)-2,3,4,5-tetrahydro-1,5-benzoxazepine-6-carboxylic acid hydroxyamide]: the IC50 turned out to be 350 nM at MMP-13 (read-out: MMP-13 IC50) and 286 nM at MMP-9 (read-out: MMP-9 IC50).
On to `COc1ccc(S(=O)(=O)N2Cc3ccccc3COc3cccc(C(=O)NO)c32)cc1` [Example 166, 12-(4-Methoxy-benzenesulfonyl)-11,12-dihydro-6H-dibenz[b,f][1,4]oxazocine-1-carboxylic acid hydroxyamide], for which the IC50 on MMP-13 (read-out: MMP-13 IC50) was > 300 nM; on MMP-9 (read-out: MMP-9 IC50) it was 203 nM.
`COc1ccc(S(=O)(=O)N2CCCCOc3cccc(C(=O)NO)c32)cc1` [Example 167, 6-(4-Methoxy-benzenesulfonyl)-3,4,5,6-tetrahydro-2H-1,6-benzoxazocine-7-carboxylic acid hydroxyamide]: the IC50 stood at 178 nM at MMP-13 (read-out: MMP-13 IC50) and 42 nM on MMP-9 (read-out: MMP-9 IC50).
Turning to `CCCOc1ccc(S(=O)(=O)N(Cc2ccccc2)c2c(C)cc(C)cc2C(=O)NO)cc1` [Example 303, 2-[Benzyl-(4-propoxy-benzenesulfonyl)-amino]-N-hydroxy-3,5-dimethyl-benzamide], the figures for the IC50 at MMP-1, at MMP-13 (read-out: MMP-13 IC50) and on MMP-9 (read-out: MMP-9 IC50) were 2780 nM, 104 nM and 64 nM, respectively.
For `COC(=O)c1cccc(C(=O)NO)c1N(Cc1cccnc1)S(=O)(=O)c1ccc(OC)cc1` [Example 369, N-Hydroxy-2-[(4-methoxy-benzenesulfonyl)-pyridin-3-ylmethyl-amino]-isophthalamic acid methyl ester], the IC50 amounted to 207 nM on MMP-1, 38 nM against TACE and 6.4 nM on MMP-9 (read-out: MMP-9 IC50).
`COc1ccc(S(=O)(=O)N(Cc2ccc(N3CCN(C)CC3)cc2)c2c(C)cccc2C(=O)NO)cc1` [Example 382, N-Hydroxy-2-{(4-methoxy-benzenesulfonyl)-[4-(4-methyl-piperazin-1-yl)-benzyl]-amino}-3-methyl-benzamide]: the IC50 at TACE stood at 146 nM; against MMP-13 it was 20 nM; on MMP-9 (read-out: MMP-9 IC50), 6.5 nM.
For the molecule `COc1ccc(S(=O)(=O)N(Cc2cccnc2)c2c(C)cc(-c3ccccc3)cc2C(=O)NO)cc1` [Example 397, 4-[(4-Methoxy-benzenesulfonyl)-pyridin-3-ylmethyl-amino]-5-methyl-biphenyl-3-carboxylic acid hydroxyamide hydrochloride salt], the IC50 against TACE came to 64 nM; against MMP-9, 3 nM.
For the molecule `COc1ccc(S(=O)(=O)N(Cc2cccnc2)c2c(C)cc(-c3ccsc3)cc2C(=O)NO)cc1` [Example 398, N-Hydroxy-2-[(4-methoxy-benzenesulfonyl)-pyridin-3-ylmethyl-amino]-3-methyl-5-thiophen-3-yl-benzamide hydrochloride salt], the results for the IC50 at MMP-1, on TACE (read-out: TACE IC50) and on MMP-9 (read-out: MMP-9 IC50) were 85 nM, 56 nM and 2 nM, respectively.
`COc1ccc(S(=O)(=O)N(Cc2cccnc2)c2c(C)cc(-c3cccc(C(F)(F)F)c3)cc2C(=O)NO)cc1` [Example 406, 4-[(4-Methoxy-benzenesulfonyl)-pyridin-3-ylmethyl-amino]-5-methyl-3'-trifluoromethyl-biphenyl-3-carboxylic acid hydroxyamide hydrochloride salt]: at MMP-9 (read-out: MMP-9 IC50), the IC50 amounted to 1.1 nM.
For `Cc1cccc(C(=O)NO)c1N(Cc1ccc(Cl)cc1)S(=O)(=O)c1ccc(-c2ccccn2)s1` [Example 407, 2-[(4-Chloro-benzyl)-(5-pyridin-2-yl-thiophene-2-sulfonyl)-amino]-N-hydroxy-3-methyl-benzamide], the IC50 turned out to be 1690 nM on MMP-1, 35 nM at MMP-13 (read-out: MMP-13 IC50) and 199 nM on MMP-9 (read-out: MMP-9 IC50).
As for `Cc1ccc(CN(c2c(C)cccc2C(=O)NO)S(=O)(=O)c2ccc(-c3ccccn3)s2)cc1C` [Example 408, 2-[(3,4-Dimethyl-benzyl)-(5-pyridin-2-yl-thiophene-2-sulfonyl)-amino]-N-hydroxy-3-methyl-benzamide], the IC50 on MMP-1 came to 3450 nM; on MMP-13 (read-out: MMP-13 IC50), 148 nM; at MMP-9 (read-out: MMP-9 IC50), 731 nM.
